Among the data in the OPERA property sets (Mansouri et al. 2018) are logP, solubility and logD values, retold here.

≈ marks a conversion by molar mass, not a printed value.

As for `CCOC(=O)C1(C)OC(=O)N(c2cc(Cl)cc(Cl)c2)C1=O` (configuration not stated), the log partition coefficient (logP) (as a rule, a log measure of how a compound divides between an organic and an aqueous phase) is 3.15.
Take `COP(=O)(OC)OC1=C(Cl)C2C=CCC12` (configuration not stated): the logP came out at 2.32.
For the compound `CNC(=O)ON=C(SC)C(=O)N(C)C`, the solubility (commonly the concentration that dissolves in the medium under given conditions) (25 °C) was 1280 mM (≈ 280000 µg/mL).
Consider `CN(C)c1nc(=O)n(C2CCCCC2)c(=O)n1C`, for which the solubility (25 °C) amounted to 131 mM (≈ 33000 µg/mL).
`C[N+]1(C)CCCCC1.[Cl-]`: the logD (usually lipophilicity at a set pH, counting ionised and neutral species) (pH 7.0) is -2.82.
`CCNc1nc(Cl)nc(NCC)n1` yielded a solubility (20 °C) of 0.046 mM (≈ 9.28 µg/mL). That is a double-digit micromolar value.
In the case of `CCCSP(=S)(OCC)Oc1ccc(SC)cc1` (configuration not stated), the logP stood at 5.48.
For `O=S(=O)(c1ccc(Cl)cc1)c1cc(Cl)c(Cl)cc1Cl`, the logP came out at 4.61. The solubility (20 °C) is 0.000219 mM (≈ 0.078 µg/mL).
`C#CCOc1cc(-n2nc(C(C)(C)C)oc2=O)c(Cl)cc1Cl` gave a log partition coefficient (logP) of 3.95. In addition, where the note is “20 °C”, the solubility is 0.00108 mM (≈ 0.37 µg/mL).
For the compound `O=C(Nc1ccc(Cl)cc1C(O)c1ccccc1)c1ccncc1` (configuration not stated), the logP was 3.13.
For `CC(C)(COCc1cccc(Oc2ccccc2)c1)c1ccc(OC(F)(F)Br)cc1`, where the note is “25 °C”, the solubility was determined as 1.05e-07 mM (≈ 5e-05 µg/mL).
`Cc1c(F)c(F)c(COC(=O)C2C(/C=C(\Cl)C(F)(F)F)C2(C)C)c(F)c1F` (configuration not stated) displayed a logP of 6.5.
In the case of `CC(C)OC(=O)[C@@H](C)N(C(=O)c1ccccc1)c1ccc(F)c(Cl)c1`, the logP amounted to 3.69.
The compound `CCN(CC)c1nc(C)cc(OP(=S)(OC)OC)n1` showed a solubility (pH 7.3, 20 °C) of 0.0455 mM (≈ 13.9 µg/mL).
For the compound `Nc1c(Cl)cc([N+](=O)[O-])cc1Cl`, the logP came out at 2.8.
On to `CCOC(=O)C1=NN(c2ccc(Cl)cc2Cl)C(C)(C(=O)OCC)C1` (configuration not stated), for which the logP is 3.83. The compound also showed a solubility (pH 6.2, 20 °C) of 0.0536 mM (≈ 20 µg/mL).
`COc1nn(CSP(=S)(OC)OC)c(=O)s1` showed a logP of 2.2.
Same read-out and setting: the value for `CCSC(=O)COc1ccc(Cl)cc1C` was 4.05.
In turn, `CCCCCCCCSC(=O)Oc1cc(Cl)nnc1-c1ccccc1` yielded a solubility (20 °C) of 0.00396 mM (≈ 1.5 µg/mL). That is a single-digit micromolar value.
The compound `O=C([O-])C(F)(F)C(F)F.[Na+]` displayed a logP of 1.32. Further, the solubility (20 °C) came out at 131 mM.
`Cc1cccc(C)c1N(Cn1cccn1)C(=O)CCl`: the logP was 2.13.
In turn, `CCNc1nc(Cl)nc(N(CC)CC)n1` came in with a solubility (25 °C) of 0.0871 mM (≈ 20 µg/mL).
For `CC1(C)[C@H](C(=O)O[C@H](C#N)c2cccc(Oc3ccccc3)c2)[C@@H]1/C=C\C(=O)OC(C(F)(F)F)C(F)(F)F`, the solubility (25 °C) is 3.69e-05 mM (≈ 0.02 µg/mL). This solubility lies about 2400-fold lower than the previous one.
Consider `O=C1C2CC=CCC2C(=O)N1SC(Cl)(Cl)Cl` (configuration not stated), for which the logP is 2.8.
For `CCCN(CC)CC1COC2(CCC(C(C)(C)C)CC2)O1` (configuration not stated), the solubility (pH 7.0, 20 °C) was found to be 1.58 mM (≈ 470 µg/mL).
For the compound `CCOCCOC(=O)C(C)Oc1ccc(Oc2ncc(C(F)(F)F)cc2Cl)cc1` (configuration not stated), the solubility (20 °C) is 0.00134 mM (≈ 0.58 µg/mL).
Regarding `CCOP(=S)(OCC)Oc1ccc(=O)n(-c2ccccc2)n1`, the logP was found to be 3.2. Besides, the solubility (20 °C) turned out to be 0.294 mM (≈ 100 µg/mL).
For the compound `CCCCOCN(C(=O)CCl)c1c(CC)cccc1CC`, the solubility (20 °C) was 0.0688 mM (≈ 21.4 µg/mL).
Where the note is “pH 5.0, 20 °C”, `CC(C)(C)c1cc([N+](=O)[O-])cc([N+](=O)[O-])c1O` gave a solubility of 0.0187 mM (≈ 4.5 µg/mL).
`CCC(C)Nc1c([N+](=O)[O-])cc(C(C)(C)C)cc1[N+](=O)[O-]` (configuration not stated) had a lipophilicity (logP) of 4.93.
For `C/C=C(\C)C(=O)O[C@H]1C[C@@H](OC(C)=O)[C@@]2(C(=O)OC)CO[C@H]3[C@@H](O)[C@@](C)([C@]45O[C@@]4(C)[C@H]4C[C@@H]5O[C@@H]5OC=C[C@@]54O)[C@H]4[C@]1(CO[C@]4(O)C(=O)OC)[C@@H]32`, the logP came to 1.09.
`CC1(C)[C@H](C=C(Cl)Cl)[C@H]1C(=O)OCc1c(F)c(F)cc(F)c1F`: the solubility (20 °C) stood at 0.000154 mM (≈ 0.057 µg/mL).
In the case of `CS(=O)(=O)c1ccc(C(=O)C2C(=O)CCCC2=O)c(Cl)c1`, the solubility (25 °C) came out at 0.502 mM (≈ 165 µg/mL).
Regarding `CC1(C)C(C=C(Cl)Cl)C1C(=O)OC(C#N)c1ccc(F)c(Oc2ccccc2)c1` (configuration not stated), for the setting “20 °C”, the solubility was determined as 6.91e-06 mM (≈ 0.003 µg/mL).
Compound `CCS(=O)(=O)c1nc2ccccn2c1S(=O)(=O)NC(=O)Nc1nc(OC)cc(OC)n1` registered a solubility (pH 5.0, 20 °C) of 0.0381 mM (≈ 17.9 µg/mL). In other words, the double-digit micromolar range.
On to `CCCC(=NOCC)C1=C(O)CC(C2CCCSC2)CC1=O` (configuration not stated), for which the solubility (20 °C) came to 0.123 mM (≈ 40 µg/mL).
Under “25 °C”, `CC(C)OC(=O)C(C(=O)OC(C)C)=C1SCCS1` gave a solubility of 0.175 mM (≈ 50.9 µg/mL).
The compound `CCC(Nc1ncnc(C)c1Cl)c1ccc(OC(F)F)cc1` (configuration not stated) displayed a solubility of 0.101 mM (≈ 33 µg/mL).
`CCOC(=O)C(Cl)Cc1cc(-n2nc(C)n(C(F)F)c2=O)c(F)cc1Cl` (configuration not stated) came in with a logP of 3.36. In addition, the solubility (25 °C) was found to be 0.0534 mM (≈ 22 µg/mL).
Compound `CN(C(O)=NC(C)(C)c1ccccc1)c1ccccc1` yielded a logP of 3.01.
`CS/C(C)=N/OC(=O)N(C)SN(C)C(=O)O/N=C(\C)SC` registered a solubility (25 °C) of 0.0729 mM (≈ 25.8 µg/mL).
Consider `C#CCN1CC(=O)N(COC(=O)[C@@H]2[C@@H](C=C(C)C)C2(C)C)C1=O`, for which the logP was 2.9. For the same compound, the solubility (25 °C) is 0.294 mM (≈ 93.5 µg/mL).
Regarding `CC(C)Oc1cccc(NC(=O)c2ccccc2C(F)(F)F)c1`, under “20 °C”, the solubility came out at 0.0244 mM (≈ 7.88 µg/mL).
Take `CCOP(=O)(SC(C)CC)N1CCSC1=O` (configuration not stated): the logP was found to be 1.68.
`CCOc1nc(C(Cl)(Cl)Cl)ns1` gave a logP of 3.37. The compound further showed a solubility (25 °C) of 0.473 mM (≈ 117 µg/mL).
Regarding `CCN(CC)C(=O)n1cnc(S(=O)(=O)c2c(C)cc(C)cc2C)n1`, the logP is 3.21.
`CNc1cnn(-c2cccc(C(F)(F)F)c2)c(=O)c1Cl`: under “25 °C”, the solubility stood at 0.111 mM (≈ 33.7 µg/mL).
`O=c1oc2ccccc2c(O)c1C1CC(c2ccc(-c3ccc(Br)cc3)cc2)Cc2ccccc21` (configuration not stated) came in with a logP of 8.5.
Still for that read-out and setting: the figure for `CC(C)(C)C(O)/C(=C\c1ccc(Cl)cc1)n1cncn1` (configuration not stated) is 3.67.
